Measurements taken from paper PMC4884413, “In vivo therapeutic efficacy and pharmacokinetics of colistin sulfate in an experimental model of enterotoxigenic Escherichia coli infection in weaned pigs” (Veterinary Research, 2016).
Where a name gives a salt, the structure may show the parent alone. Read-outs that look alike come from different tables or passages of the source. Bridge positions count the residues as written; N and C are the ends. Square brackets hold non-standard residues; d marks the D form. Peptide text beside a SMILES is read from it. * marks the point of attachment. X1 = CC[C@H](C)CCCCC(=O)*; Dab = NCC[C@H](N)C(=O)O

Tests used:
[1] = system: ETEC: F4; test: Diarrhea score (fecal consistency 0-4) in ETEC: F4 challenged weaned pigs; format: in vivo; details: after 2 days of CS administration (d2), also d3 and d4, both trials, challenged treated vs challenged untreated, p < 0.0001
Source text: For experimental infection of pigs, a nalidixic acid-resistant (Nal^r) variant of ETEC: F4 strain ECL8559 (O149: LT: STa: STb: East1: paa: hemβ: F4), kindly provided by the E. coli Laboratory as described previously, was used. The strain was passaged in a weaned pig to enhance its pathogenicity. A hemolytic, Nal^r colony isolated from the feces of this pig was confirmed to be positive for O149 and the virulence genes F4, STa, STb, LT by multiplex PCR as previously described. This strain, designated ECL8559A, was used in the experimental challenge in this study. After 1-week of acclimatization, 28-day-old pigs in the challenge groups were orally gavaged with 10^9 CFU of the ETEC: F4 strain in 5 mL of trypticase soy broth (Difco Laboratories, Inc., Detroit, MI, USA) following the administration of 10 mL of CaCO3 to neutralize gastric acid. […]
After the oral challenge, pigs were observed daily for signs of anorexia, lethargy and diarrhea. The severity of diarrhea was assessed visually by using a fecal consistency scoring (0, normal; 1, soft feces; 2, mild diarrhea; 3, semi liquid diarrhea and 4, liquid diarrhea) as described by Jamalludeen et al.. The rectal body temperature was monitored daily using a digital thermometer.
Ordinal diarrhea scores were analyzed with the Cochran-Mantel-Haenszel test at each time period.

[2] = system: ETEC: F4; test: Fecal ETEC: F4 shedding in challenged weaned pigs; format: in vivo
Description: (§1) Pigs were selected based on the presence of the F4 receptor gene by PCR–RFLP as previously described at 4 days of age. Two trials of 48 pigs were conducted using different doses of CS [100 000 IU/kg (trial 1) or 50 000 IU/kg (trial 2)]. In each trial, four groups of 12 pigs were constituted: challenged treated, challenged untreated, unchallenged treated, and unchallenged untreated.
(§2) For experimental infection of pigs, a nalidixic acid-resistant (Nal^r) variant of ETEC: F4 strain ECL8559 (O149: LT: STa: STb: East1: paa: hemβ: F4), kindly provided by the E. coli Laboratory as described previously, was used. The strain was passaged in a weaned pig to enhance its pathogenicity. A hemolytic, Nal^r colony isolated from the feces of this pig was confirmed to be positive for O149 and the virulence genes F4, STa, STb, LT by multiplex PCR as previously described. This strain, designated ECL8559A, was used in the experimental challenge in this study. After 1-week of acclimatization, 28-day-old pigs in the challenge groups were orally gavaged with 10^9 CFU of the ETEC: F4 strain in 5 mL of trypticase soy broth (Difco Laboratories, Inc., Detroit, MI, USA) following the administration of 10 mL of CaCO3 to neutralize gastric acid.
(§3) Colistin sulfate (Bond & Beaulac Inc., QC, Canada) was administered by oral gavage in 5 mL of water using a polyethylene tube attached to a syringe, at a dose of 100 000 or 50 000 IU/kg in trials 1 and 2 respectively.
Fresh fecal samples were obtained from pigs using pre-weighed sterile rectal swabs (Puritan Medical Products, Guilford, Maine, USA). Bacteriological examination of fecal samples was performed 1 day before and 1, 2, 3, 5, 6, 7, 8, 10, 13, 20, 27, 36 days after oral challenge to evaluate fecal excretion of the challenge ETEC: F4 strain and total E. coli count. […] Rectal swabs were weighed before and after sampling of pigs for individual fecal material quantification.

[3] = Body weight of weaned pigs; format: in vivo; details: both trials, challenged treated compared to challenged untreated pigs
Description: Pigs were weighed individually using an electric scale prior to inoculation and at 6, 19 and 35 days after beginning CS treatment.
Bacterial counts and CS plasma concentrations were log10 transformed prior to data analysis to normalize distributions. Total E. coli counts, ETEC: F4 counts, rectal temperature, and body weight were analyzed with repeated-measures ANOVA, with time as a within-subject factor and group as the between-subject factor. A priori contrasts were performed to compare group means at different time periods and to compare pre- and post-infection means in each treatment. For these multiple comparisons, the alpha level was adjusted downward using the Benjamini-Hochberg sequential procedure. A similar procedure was used to analyze CS plasma concentration to determine effect of ETEC: F4 oral challenge on CS intestinal absorption in pigs.

[4] = CS plasma concentrations by HPLC-MS/MS after oral administration; format: in vivo, pigs; details: both trials
Description: as §3
Blood samples (3 mL) were collected using potassium EDTA tubes, from the jugular vein of eight pigs in each treated group, challenged or not of the two trials, at 0.5, 12, 24 and 48 h after the last CS oral administration on day 5.
Plasma was separated by centrifugation at 3000 g for 10 min and stored at −20 °C prior to analysis. These samples were used to determine CS plasma concentrations by high performance HPLC–MS/MS, in order to determine the slope of the terminal phase (λz). The λz was calculated as the negative of the slope of the log-linear regression of the natural logarithm concentration–time curve during the terminal phase. The λz is an important parameter used to determine CS elimination half-life (T1/2), which is an index of drug persistence in the body. Bioanalyses and pharmacokinetic analyses were performed as previously described. The quantification of CS was based on the peak area ratio of the analyte with the internal standard. A calibration curve was used for determining the concentration of CS in all unknown samples by comparing the peak area ratio of the unknown samples to a set of standard samples of known concentration. […]

[5] = system: E. coli K99; details: CS 300 mg/kg of diet, 7 or 14 days, weanling pigs challenged with E. coli K99; cited from earlier work
[6] = intramuscular (IM), pigs, cited from earlier work
Source text: In our study, regardless of the dose, CS treatment led to a decrease of nearly 4 log cfu/g in fecal shedding of ETEC: F4 and total E. coli, but only during the treatment period. […] In our study, the effect of CS on the decrease of ETEC: F4 and total E. ...

[7] = system: total E. coli; test: Fecal total E. coli shedding in weaned pigs; format: in vivo
Description: as §1, §2, §3
Fresh fecal samples were obtained from pigs using pre-weighed sterile rectal swabs (Puritan Medical Products, Guilford, Maine, USA). Bacteriological examination of fecal samples was performed 1 day before and 1, 2, 3, 5, 6, 7, 8, 10, 13, 20, 27, 36 days after oral challenge to evaluate fecal excretion of the challenge ETEC: F4 strain and total E. coli count. One millilitre of buffered peptone water solution (BPW) was added to each swab and selected dilutions were plated on MacConkey agar and 5% bovine blood agar plates containing nalidixic acid at 50 μg/mL (Sigma-Aldrich Canada Ltd., Oakville, ON, Canada) to count the total E. coli population and the hemolytic challenge ETEC: F4 strain respectively, as previously described. In parallel, 5% bovine blood agar plates containing nalidixic acid at 50 μg/mL and CS at 2 μg/mL and MacConkey agar plates containing CS at 2 μg/mL were used to enumerate the CS resistant hemolytic challenge ETEC: F4 and total E. coli population respectively. The plates were incubated aerobically for 24 h at 37 °C. Isolates recovered from media containing 2 μg/mL of colistin were considered to be putative CS-resistant, as previously described. All samples were processed on the day of collection. Rectal swabs were weighed before and after sampling of pigs for individual fecal material quantification.

CC[C@H](C)CCCCC(=O)N[C@@H](CCN)C(=O)N[C@H](C(=O)N[C@@H](CCN)C(=O)N[C@H]1CCNC(=O)[C@H]([C@@H](C)O)NC(=O)[C@H](CCN)NC(=O)[C@H](CCN)NC(=O)[C@H](CC(C)C)NC(=O)[C@@H](CC(C)C)NC(=O)[C@H](CCN)NC1=O)[C@@H](C)O [Colistin sulfate] (X1-[Dab]T[Dab][Dab][Dab][dL]L[Dab][Dab]T; lactam 4-C)
diarrhea scores [1]: significantly decreased
fecal ETEC: F4 shedding ([2]; both trials (100 000 or 50 000 IU/kg oral, twice daily, 5 days), between d2 and d6, treated vs untreated challenged pigs, p < 0.0001): significant reduction
levels of ETEC: F4 in feces ([2]; both trials, most pigs, between d4 and d6): dropped below our detection limit
decrease in fecal shedding of ETEC: F4 ([2]; regardless of the dose, only during the treatment period): ~4 log cfu/g
pig weight losses [3]: did not prevent pig weight losses
plasma concentrations ([4]; 48 h following the last CS administration, LLOQ 1 ng/mL of plasma): below the LLOQ
CS plasma concentrations, challenged treated compared to unchallenged treated groups ([4]; all sampling times): higher
reduction of the number of E. coli in cecal digesta [5]: 4.38 log cfu/g
reduction of the number of E. coli in ileal digesta [5]: 5.30 log cfu/g
systemic bioavailability ([6]; 2.5 mg/kg bw): 95.94%
systemic bioavailability ([6]; 5 mg/kg bw): 88.45%
fecal total E. coli shedding ([7]; trial 1, 100 000 IU/kg oral twice daily 5 days, d1 to d5, challenged treated vs challenged untreated, p < 0.0001): significant reduction
fecal total E. coli shedding ([7]; trial 1, 100 000 IU/kg, d2 to d6, unchallenged treated vs unchallenged untreated, p < 0.0001): significant reduction
fecal total E. coli shedding ([7]; trial 2, 50 000 IU/kg oral twice daily 5 days, d1 to d6, challenged treated vs challenged untreated, p < 0.0007): significant reduction
fecal total E. coli shedding ([7]; trial 2, 50 000 IU/kg, d2 to d5, unchallenged treated vs unchallenged untreated, p < 0.0001): significant reduction
